≈ marks a conversion by molar mass, not a printed value.
Columns and labels:
[1] = system: Plasmodium falciparum; experiment: microbe, parasite or virus in culture; settings: NF54, Erythrocyte
Description: Antiplasmodial activity against multidrug-sensitive Plasmodium falciparum NF54 infected in human erythrocytes assessed as reduction in [3H]hypoxanthine incorporation preincubated for 48 hrs followed by [3H]hypoxanthine addition and measured after 24 hrs by liquid scintillation counting method

[2] = Aqueous solubility of compound in pH 6.5 PBS incubated for 2 hrs under shaking condition by shake-flask method based HPLC-DAD analysis; format: physicochemical
[3] = system: Plasmodium falciparum; experiment: microbe, parasite or virus in culture; settings: K1, Erythrocyte
Description: Antiplasmodial activity against multidrug-resistant Plasmodium falciparum K1 infected in erythrocytes assessed as reduction in [3H]hypoxanthine incorporation preincubated for 48 hrs followed by [3H]hypoxanthine addition and measured after 24 hrs by liquid scintillation counting method

[4] = Metabolic stability in mouse liver microsomes assessed as compound remaining at 0.1 uM measured after 30 mins in presence of cofactor NADPH by LC-MS/MS analysis; format: ADME, Microsome; settings: read-out: Stabilty
[5] = Metabolic stability in human liver microsomes assessed as compound remaining at 0.1 uM measured after 30 mins in presence of cofactor NADPH by LC-MS/MS analysis; format: ADME, Microsome; settings: read-out: Stabilty
[6] = Metabolic stability in rat liver microsomes assessed as compound remaining at 0.1 uM measured after 30 mins in presence of cofactor NADPH by LC-MS/MS analysis; format: ADME, Microsome; settings: read-out: Stabilty
[7] = Aqueous solubility of compound in pH 2 0.01M HCl incubated for 2 hrs under shaking condition by shake-flask method based HPLC-DAD analysis; format: physicochemical
[8] = molecular target: Voltage-gated inwardly rectifying potassium channel KCNH2 (Homo sapiens, UniProt Q12809); experiment: Inhibition of human ERG by IonWorks patch clamp electrophysiology method
Voltage-gated inwardly rectifying potassium channel KCNH2, sequence (Q12809 whole entry): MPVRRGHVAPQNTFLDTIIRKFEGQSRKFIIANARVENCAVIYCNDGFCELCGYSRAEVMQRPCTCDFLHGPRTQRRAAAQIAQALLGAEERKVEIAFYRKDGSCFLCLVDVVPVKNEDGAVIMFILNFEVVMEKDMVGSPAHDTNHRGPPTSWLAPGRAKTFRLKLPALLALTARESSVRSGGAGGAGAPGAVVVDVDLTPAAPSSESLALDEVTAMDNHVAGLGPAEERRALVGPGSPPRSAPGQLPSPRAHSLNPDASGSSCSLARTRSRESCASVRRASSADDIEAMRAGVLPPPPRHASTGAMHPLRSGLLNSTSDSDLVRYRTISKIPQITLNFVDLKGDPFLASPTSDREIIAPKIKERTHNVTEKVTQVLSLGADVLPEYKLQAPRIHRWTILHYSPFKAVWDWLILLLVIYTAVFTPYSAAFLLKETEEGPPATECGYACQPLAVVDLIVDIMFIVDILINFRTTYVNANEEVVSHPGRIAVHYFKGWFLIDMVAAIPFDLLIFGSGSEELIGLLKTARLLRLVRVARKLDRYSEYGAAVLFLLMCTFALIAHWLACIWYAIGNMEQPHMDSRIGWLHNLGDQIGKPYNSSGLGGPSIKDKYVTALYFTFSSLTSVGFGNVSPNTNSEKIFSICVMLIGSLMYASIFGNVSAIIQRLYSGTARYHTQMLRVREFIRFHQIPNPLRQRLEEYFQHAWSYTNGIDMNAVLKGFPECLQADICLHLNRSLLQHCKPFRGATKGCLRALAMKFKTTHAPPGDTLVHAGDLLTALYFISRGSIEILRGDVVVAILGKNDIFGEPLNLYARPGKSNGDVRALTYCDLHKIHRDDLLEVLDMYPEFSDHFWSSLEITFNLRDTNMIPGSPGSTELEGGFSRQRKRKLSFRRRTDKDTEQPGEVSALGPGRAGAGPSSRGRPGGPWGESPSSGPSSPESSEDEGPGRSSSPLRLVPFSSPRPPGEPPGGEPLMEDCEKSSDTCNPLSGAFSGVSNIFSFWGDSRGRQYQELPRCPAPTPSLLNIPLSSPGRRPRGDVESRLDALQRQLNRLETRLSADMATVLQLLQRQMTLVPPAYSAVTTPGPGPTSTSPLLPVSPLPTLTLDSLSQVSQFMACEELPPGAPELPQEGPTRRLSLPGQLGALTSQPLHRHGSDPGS

[9] = system: Plasmodium berghei; experiment: Antiplasmodial activity against Plasmodium berghei ANKA infected in NMRI mouse assessed as reduction in parasitemia at 3 mg/kg, po qd for 4 consecutive days measured at day 7 post infection by flow cytometry analysis; format: functional; set-up: scale not given: the % may be the effect or the level left; settings: time 4 day
[10] = system: Plasmodium berghei; experiment: Antiplasmodial activity against Plasmodium berghei ANKA infected in NMRI mouse model assessed as mean survival days at 3 mg/kg, po qd for 4 consecutive day; format: functional; settings: time 4 day
[11] = system: Plasmodium berghei; experiment: Antiplasmodial activity against Plasmodium berghei ANKA infected in NMRI mouse assessed as reduction in parasitemia at 10 mg/kg, po qd for 4 consecutive days measured at day 7 post infection by flow cytometry analysis; format: functional; set-up: scale not given: the % may be the effect or the level left; settings: time 4 day
[12] = system: Plasmodium berghei; experiment: Antiplasmodial activity against Plasmodium berghei ANKA infected in NMRI mouse model assessed as mean survival days at 10 mg/kg, po qd for 4 consecutive day; format: functional; settings: time 4 day
[13] = Selectivity index, ratio of IC50 for cytotoxicity against CHO cells by MTT assay to IC50 for antiplasmodial activity against multidrug-sensitive Plasmodium falciparum NF54 infected in human erythrocytes; format: toxicity, cell-based; settings: Chinese hamster, read-out: Ratio IC50
[14] = Cmax(app) in NMRI mouse plasma infected with Plasmodium berghei ANKA at 3 mg/kg, po qd for 4 consecutive days and measured post last dose; format: ADME, organism-based; settings: time 4 day

SMILES | IC50 [1] | solubility thermodynamic at 2 h [2] | IC50 [3] | remaining at 0.5 h, 0.1 µM [4] | remaining at 0.5 h, 0.1 µM [5] | remaining at 0.5 h, 0.1 µM [6] | solubility thermodynamic at 2 h [7] | IC50 [8] | Activity [9] | MSD [10] | Activity [11] | MSD [12] | selectivity ratio [13] | Cmax [14]
N#Cc1ccc(-c2cnc(N)c(-c3ccc(C(F)(F)F)nc3)n2)nc1 | 2710 nM | – | – | – | – | – | – | – | – | – | – | – | – | –
CS(=O)(=O)c1ccc(-c2cnc(N)c(-c3ccc(N)nc3)n2)cc1 | 38 nM | 149 µM (≈ 50.9 µg/mL) | 27 nM | > 90% | > 90% | > 90% | 206 µM (≈ 70.3 µg/mL) | – | – | – | – | – | – | –
Nc1ncc(-c2ccc(C(F)(F)F)nc2)nc1-c1ccc(C(F)(F)F)nc1 | – | – | – | > 90% | > 90% | > 90% | – | – | – | – | – | – | – | –
COC(=O)c1ccc(-c2cnc(N)c(-c3ccc(C(F)(F)F)cc3)n2)cc1 | 2630 nM | < 5 µM | – | – | – | – | < 5 µM | – | – | – | – | – | – | –
CC(C)(C)N1CCN(C(=O)c2ccc(-c3cnc(N)c(-c4ccc(C(F)(F)F)cc4)n3)cc2)CC1 | 17 nM | 95 µM (≈ 45.9 µg/mL) | 11 nM | – | – | – | 200 µM (≈ 96.7 µg/mL) | 2000 nM | – | – | – | – | – | –
Nc1ncc(-c2ccc(C(=O)N3CCC(N)CC3)cc2)nc1-c1ccc(C(F)(F)F)nc1 | 20 nM | 163 µM (≈ 72.1 µg/mL) | 18 nM | – | – | – | 200 µM (≈ 88.5 µg/mL) | – | 41% | 6 days | – | – | – | –
Nc1ncc(-c2ccc(C(=O)N3CC[C@H](O)C3)cc2)nc1-c1ccc(C(F)(F)F)cc1 | 6 nM | 68 µM (≈ 29.1 µg/mL) | – | > 90% | > 90% | > 90% | 93 µM (≈ 39.8 µg/mL) | – | – | 8 days | 100% | 16 days | – | –
Nc1ncc(-c2ccc(C(=O)N3CCCNCC3)cc2)nc1-c1ccc(C(F)(F)F)cc1 | 7.7 nM | 128 µM (≈ 56.5 µg/mL) | 6.3 nM | – | – | – | 190 µM (≈ 83.9 µg/mL) | – | 88% | 11 days | – | – | – | –
Nc1ncc(-c2ccc(C(=O)N3CCCNCC3)cc2)nc1-c1ccc(C(F)(F)F)nc1 | 12.7 nM | 146 µM (≈ 64.6 µg/mL) | 10.2 nM | – | – | – | 200 µM (≈ 88.5 µg/mL) | – | 55% | 7 days | – | – | – | –
Nc1ncc(-c2ccc(C(=O)N3CCC(O)C3)cc2)nc1-c1ccc(C(F)(F)F)nc1 (centres undefined) | 18 nM | 155 µM (≈ 66.6 µg/mL) | 12 nM | – | – | – | 200 µM (≈ 85.9 µg/mL) | – | 61% | 7 days | – | – | – | –
NC(=O)c1ccc(-c2cnc(N)c(-c3ccc(C(N)=O)cc3)n2)cc1 | 25 nM | – | 21 nM | – | – | – | – | – | – | – | – | – | – | –
CNC(=O)c1ccc(-c2nc(-c3ccc(C(N)=O)cc3)cnc2N)cc1 | 52 nM | 178 µM (≈ 61.8 µg/mL) | 52 nM | – | – | – | 186 µM (≈ 64.6 µg/mL) | – | – | – | – | – | – | –
NC(=O)c1ccc(-c2cnc(N)c(-c3ccc(C(F)(F)F)nc3)n2)cn1 | 5.2 nM | 5 µM (≈ 1.8 µg/mL) | 7.2 nM | > 90% | > 90% | > 90% | 7 µM (≈ 2.52 µg/mL) | – | 97.5% | 7 days | 99.9% | 14 days | > 1800 | –
Nc1ccc(-c2nc(-c3ccc(S(=O)(=O)C4CC4)cc3)cnc2N)cn1 | 38 nM | 13 µM (≈ 4.78 µg/mL) | 44 nM | > 90% | > 90% | > 90% | 212 µM (≈ 77.9 µg/mL) | – | – | – | – | – | – | –
Nc1ccc(-c2cnc(N)c(-c3ccc(N)nc3)n2)cn1 | 203 nM | – | 143 nM | > 90% | > 90% | > 90% | – | – | – | – | – | – | – | –
Nc1ncc(-c2ccc(C(=O)N3CCNCC3)cc2)nc1-c1ccc(C(F)(F)F)nc1 | 9.1 nM | 198 µM (≈ 84.8 µg/mL) | 7.7 nM | > 90% | > 90% | > 90% | 200 µM (≈ 85.7 µg/mL) | – | <40% | – | – | – | – | –
Nc1ncc(-c2ccc(C(=O)N3CCC(N)C3)cc2)nc1-c1ccc(C(F)(F)F)nc1 (centres undefined) | 40 nM | 116 µM (≈ 49.7 µg/mL) | 26 nM | – | – | – | 200 µM (≈ 85.7 µg/mL) | – | 47% | 7 days | – | – | – | –
Nc1ccc(-c2nc(-c3ccc(C(=O)N4CCNCC4)cc3)cnc2N)cn1 | 51 nM | 186 µM (≈ 69.8 µg/mL) | 37 nM | – | – | – | 189 µM (≈ 71 µg/mL) | – | – | – | – | – | – | –
CN1CCN(C(=O)c2ccc(-c3cnc(N)c(-c4ccc(C(F)(F)F)cc4)n3)cc2)CC1 | 7.9 nM | – | 6.8 nM | > 90% | > 90% | > 90% | – | – | – | 12 days | – | 26 days | – | 1600 nM
CN1CCCN(C(=O)c2ccc(-c3cnc(N)c(-c4ccc(C(F)(F)F)nc4)n3)cc2)CC1 | 15 nM | 85 µM (≈ 38.8 µg/mL) | 9.9 nM | > 90% | > 90% | > 90% | 200 µM (≈ 91.3 µg/mL) | – | – | 12 days | – | – | – | –
N#Cc1ccc(-c2cnc(N)c(-c3ccc(C(N)=O)cc3)n2)cc1 | 57 nM | – | 44 nM | – | – | – | – | – | – | – | – | – | – | –
Nc1ccc(-c2cnc(N)c(-c3ccc(C(F)(F)F)nc3)n2)cn1 | – | 34 µM (≈ 11.3 µg/mL) | – | > 90% | > 90% | > 90% | 199 µM (≈ 66.1 µg/mL) | – | – | – | – | – | – | –
NC(=O)c1ccc(-c2cnc(N)c(-c3ccc(C(F)(F)F)nc3)n2)nc1 | 1580 nM | < 5 µM | – | – | – | – | 123 µM (≈ 44.3 µg/mL) | – | – | – | – | – | – | –
N#Cc1ccc(-c2cnc(N)c(-c3ccc(N)nc3)n2)cc1 | 222 nM | < 5 µM | 149 nM | > 90% | > 90% | > 90% | 208 µM (≈ 60 µg/mL) | – | – | – | – | – | – | –
CN1CCN(C(=O)c2ccc(-c3cnc(N)c(-c4ccc(C(F)(F)F)nc4)n3)cc2)CC1 | 9.9 nM | 182 µM (≈ 80.5 µg/mL) | 9.9 nM | > 90% | > 90% | > 90% | 200 µM (≈ 88.5 µg/mL) | – | 81% | 7 days | – | 8 days | – | –
Nc1ncc(-c2ccc(C(=O)N3CCC(N)CC3)cc2)nc1-c1ccc(C(F)(F)F)cc1 | 10 nM | 88 µM (≈ 38.8 µg/mL) | 7.5 nM | – | – | – | 200 µM (≈ 88.3 µg/mL) | – | 65% | 7 days | – | – | – | –

— ChEMBL document CHEMBL4715789, “Identification of a Potential Antimalarial Drug Candidate from a Series of 2-Aminopyrazines by Optimization of Aqueous Solubility and Potency across the Parasite Life Cycle” (J Med Chem, 2016)
